Experimental data: patent US12458614B2, “Therapeutic agents for improved mobility and cognitive function and for treating neurodegenerative diseases and lysosomal storage disorders” (priority 2017, dated 2025)

Key:
[1] = tested on: patients with multiple system atrophy Parkinson type (MSA-P); assay: Case studies, multiple system atrophy Parkinson type; assay type: in vivo, human; settings: MSA-P Patient 3, after one month
Excerpt: Medication was stopped. […] The patient evaluated after one month on acetyl-DL-leucine. […] Episodes of mental confusion completely disappeared. The patient's cognitive structure seemed much clearer and straighter. […] The patient's spouse supported continuing the medication.

[2] = tested on: Sandhoff disease model, Hexb−/− mouse; assay: Lifespan of Sandhoff mouse; assay type: in vivo; settings: 0.1 g/kg from 3 weeks of age, p<0.05 vs untreated
Procedure: This study made use of a mouse model of Sandhoff disease, the Hexb^−/− mouse, as descrbed in Jeyakumar et al. (Jeyakumar, M. et al. (1999) Proc. Natl. Acad. Sci. USA 96: 6388-6393).
In FIG. 7A, acetyl-leucine-treated mice were treated with 0.1 g/kg acetyl-leucine from 3 weeks of age. The asterisks (*) indicates a p-value of <0.05 vs untreated Sandhoff mice. Data is average of n=6 mice per group. Without treatment, the median survival time of Sandhoff mice was 112 days. Treatment with acetyl-leucine (0.1 g/kg body weight since 3 weeks of age) increased the median lifespan to 120 days.

[3] = tested on: NPC patients; assay: Clinical severity score (CSS) and annual severity increment score (ASIS) in ten NPC patients; assay type: in vivo, human; settings: 4.5 g/day
Excerpt: An NPC patient's severity may be quantified by assigning a clinical severity score (CSS), which assesses various parameters of the disease and gives each parameter a score out of 5 (higher score=greater severity). See Yanjanin et al., “Linear Clinical Progression, Independent of Age of Onset, in Niemann-Pick Disease, Type C,” Am J Med Genet Part B 153B:132-140. In an untreated patient, one can typically predict how the CSS will change over time in an individual, as disease progression appears to be linear. For example, if Patient A moves from a CSS of 8 to a CSS of 12 between month 0 and month 12, it can be predicted that by month 36, the patient will have a CSS of 20. The annual severity increment score (ASIS) quantities the annual rate of change in the CSS, calculated by dividing the CSS of a patient by the patient's age. […]
Ten NPC patients were administered acetyl-leucine at 4.5 g/day over long durations. A CSS was determined at baseline, and at various time points, for eye movement, ambulation, speech, swallow, fine motor skills, cognition, memory, and seizures. An overall CSS was calculated at baseline and at each such time point by adding the individual CSS values for each parameter (eye movement, ambulation, etc.).
The ASIS at baseline and each time point was calculated using each patient's CSS and age at the time of assessment. […]

[4] = tested on: person with balance disorder/senile gait disorder; assay: Case study Example 23; assay type: in vivo, human
[5] = tested on: Npc1−/− mouse; assay: Lifespan; assay type: in vivo; settings: 0.1 g/kg from 3 weeks of age
Excerpt: Separate groups of Npc1^−/− and Npc1^+/+ mice were left untreated, as controls.

[6] = tested on: patient with spinocerebellar ataxia 28 (SCA 28); assay: Case study, spinocerebellar ataxia 28; assay type: in vivo, human; settings: SCA 28 patient, about one month, 5 g per day
Procedure: A gait analysis was performed before treatment commenced. After about one month of treatment, medication was stopped and the patient was evaluated. […] The patient reported that they no longer walked like a robot and could climb the stairs without using the banisters.

[7] = tested on: Mucopolysaccharidosis Type IIIB (MPS IIIB) patient fibroblasts; assay: Lysosomal volume via LysoTracker; assay type: cell-based, human; settings: 1 mM, 6 days
[8] = tested on: patients with progressive supranuclear palsy; assay: Case studies, progressive supranuclear palsy; assay type: in vivo, human
Procedure: After 27 days of acetyl-leucine treatment, medication was stopped and the patient was re-examined 60 days later. […] Gait analysis was performed before treatment commenced. After 17 days of treatment, medication was stopped and the patient was re-examined 4 days later. […] Gait analysis was performed before treatment commenced. After three weeks of treatment, medication was stopped and the patient was re-examined.

[9] = tested on: Tay-Sachs disease patient fibroblasts; assay: Glycosphingolipid (GSL) levels via HPLC; assay type: cell-based, human; settings: 1 mM for 6 days, p<0.05
[10] = tested on: patient with frontotemporal dementia with parkinsonism; assay: Case study, frontotemporal dementia with parkinsonism; assay type: in vivo, human
Excerpt: After approximately one month of acetyl-leucine treatment, medication was stopped and the patient was re-examined 13 days later.

[11] = tested on: Sandhoff disease patient fibroblasts; assay: Glycosphingolipid (GSL) levels via HPLC; assay type: cell-based, human; settings: 1 mM for 6 days
[12] = tested on: patients with downbeat nystagmus; assay: Case studies, downbeat nystagmus; assay type: in vivo, human
[13] = tested on: AB variant of Tay-Sachs disease patient fibroblasts; assay: Glycosphingolipid (GSL) levels via HPLC; assay type: cell-based, human; settings: 1 mM for 6 days
[14] = PSP Patient 4, after three weeks of treatment
[15] = DBN Patient 1, approximately 14 weeks

CC(=O)NC(CC(C)C)C(=O)O (racemic) [acetyl-DL-leucine]
Cognitive function (reported by wife) [1]: significant improvement of cognitive function | Gait function [1]: no improvement of gait function | Lifespan of the Sandhoff mouse [2]: statistically significant increase in the lifespan | Change in ASIS during treatment relative to baseline [3]: all ten patients showed a reduction in ASIS | Change in overall CSS over the course of the experiment [3]: none of the ten patients showed an overall increase in CSS | Frequency of falls ([4]; Day 14): significant reduction in the frequency of falls | Hypokinetic-rigid syndrome ([4]; Day 14): No change of hypokinetic-rigid syndrome | Dizziness symptoms ([4]; Day 14, 3 then 5 gram per day): improvement of dizziness symptoms | Dizziness after suspension ([4]; two days after suspension of treatment): increase of dizziness symptoms | Lifespan [5]: small but statistically significant increase in lifespan | Symptomatology (patient report) [6]: improvement of the symptomatology, in particular reduced dizziness | LysoTracker fluorescence vs untreated disease fibroblasts [7]: statistically significant reduction in LysoTracker fluorescence toward control level | Symptoms after suspension ([8]; PSP Patient 1): symptoms worsened | PSPRS Score ([8]; PSP Patient 1, re-examined about two months later): remained stable | Dizziness and gait (patient report) ([8]; PSP Patient 1, under therapy, 27 days): significant reduction of dizziness and slight improvement of gait | Gait / hypokinetic rigid syndrome (patient report) ([8]; PSP Patient 2, 17 days of treatment): no significant improvement of gait or hypokinetic rigid syndrome | Gait / hypokinetic rigid syndrome (patient report) ([8]; PSP Patient 3, 17 days of treatment): no significant improvement of gait or hypokinetic rigid syndrome | Symptoms without medication ([8]; PSP Patient 4, after three months without medication): progression of hypokinetic-rigid syndrome | Gait analysis (summary) [8, 14]: improvement of gait with increased speed, max. speed, and step cycle length and reduction of track width, double stance and coefficient of variation | Gait and falls (patient report) [8, 14]: gait with increased subjective security and with reduced frequency of falls | GSL storage [9]: decrease was statistically significant | Symptoms after suspension of treatment ([10]; re-examined 13 days after stop): symptoms worsened | Falls ([10]; under therapy): falls stopped | Speech ([10]; under therapy): improvement of speech | Gait ([10]; under therapy, 3 then 5 gram per day, about one month): significant improvement of gait | GSL levels [11]: trend towards decreased GSL levels | Effect of temporary suspension of the medication ([12]; DBN Patient 1): considerable deterioration | Side-effects ([12]; DBN Patient 1, 5 gram per day): no side-effects resulted | Benefit (patient report) ([12]; DBN Patient 1, after 10 days, 3 g then 5 gram per day): significant benefit | Nystagmus (clinical examination) [12, 15]: reduction of the nystagmus | Postural sway (posturography) [12, 15]: reduction of postural sway | Oscillopsia / reading and writing ([12]; DBN Patient 1, approximately 14 weeks after starting): reduced oscillopsia | Gait ([12]; DBN Patient 2, 3 g/day then 5 g/day): improvement of gait | Downbeat nystagmus (video-oculography) ([12]; DBN Patient 2, on treatment): improved | GSL levels [13]: trend towards decreased GSL levels
